Measured values taken from patent US20200317642A1, “AMINE-SUBSTITUTED HETEROCYCLIC COMPOUNDS AS EHMT2 INHIBITORS AND DERIVATIVES THEREOF” (Epizyme, Inc., priority 2017, published 2020).

Target: T1, EHMT1 (Homo sapiens, UniProt Q9H9B1)
T1 sequence (Q9H9B1 1-1298): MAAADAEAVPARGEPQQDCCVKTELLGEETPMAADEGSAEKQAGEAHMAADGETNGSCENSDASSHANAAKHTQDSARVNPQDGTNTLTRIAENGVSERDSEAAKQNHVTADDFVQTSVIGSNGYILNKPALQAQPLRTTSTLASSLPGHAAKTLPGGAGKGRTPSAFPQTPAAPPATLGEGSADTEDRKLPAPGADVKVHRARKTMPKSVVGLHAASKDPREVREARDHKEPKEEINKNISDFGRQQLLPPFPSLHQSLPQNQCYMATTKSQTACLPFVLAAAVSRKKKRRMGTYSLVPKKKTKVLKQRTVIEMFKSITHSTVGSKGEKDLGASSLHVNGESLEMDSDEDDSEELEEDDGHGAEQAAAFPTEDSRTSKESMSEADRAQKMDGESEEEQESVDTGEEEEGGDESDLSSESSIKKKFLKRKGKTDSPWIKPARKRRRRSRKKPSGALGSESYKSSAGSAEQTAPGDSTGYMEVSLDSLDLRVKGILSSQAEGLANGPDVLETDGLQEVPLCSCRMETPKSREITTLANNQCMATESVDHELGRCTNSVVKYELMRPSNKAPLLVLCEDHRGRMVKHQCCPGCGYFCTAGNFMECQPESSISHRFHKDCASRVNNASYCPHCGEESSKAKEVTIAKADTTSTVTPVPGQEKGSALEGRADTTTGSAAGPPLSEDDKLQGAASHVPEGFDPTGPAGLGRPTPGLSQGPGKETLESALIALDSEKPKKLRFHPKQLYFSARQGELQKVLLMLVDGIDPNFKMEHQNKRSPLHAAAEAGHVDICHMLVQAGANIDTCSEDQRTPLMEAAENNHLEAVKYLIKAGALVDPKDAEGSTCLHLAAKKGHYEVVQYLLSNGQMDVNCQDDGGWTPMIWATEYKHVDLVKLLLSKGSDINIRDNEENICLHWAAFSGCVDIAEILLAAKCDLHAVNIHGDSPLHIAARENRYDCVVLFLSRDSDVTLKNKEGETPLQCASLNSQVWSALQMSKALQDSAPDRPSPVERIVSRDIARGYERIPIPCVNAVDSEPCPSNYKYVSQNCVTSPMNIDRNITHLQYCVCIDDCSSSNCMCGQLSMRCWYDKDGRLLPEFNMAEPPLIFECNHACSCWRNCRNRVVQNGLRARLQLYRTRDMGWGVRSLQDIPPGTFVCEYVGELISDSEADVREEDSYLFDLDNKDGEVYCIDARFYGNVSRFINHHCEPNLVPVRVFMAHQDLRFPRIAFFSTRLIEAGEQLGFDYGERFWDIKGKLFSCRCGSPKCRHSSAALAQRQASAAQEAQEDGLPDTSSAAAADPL
Experiment: EHMT1 PEP enzyme assay
Type: biochemical
Details: Table 3A; read-out: EHMT1 (IC50 μM)

Compound | IC50 [µM]
CNCc1cn(-c2cc3c(cc2Cl)C2(CCC2)C(N)=N3)nn1 [Compound A15, 5′-chloro-6′-(4-((methylamino)methyl)-1H-1,2,3-triazol-1-yl)spiro[cyclobutane-1,3′-indol]-2′-amine] | 0.01 to 0.1
CNC1=Nc2cc(-n3cc(CN4CCC4)cn3)c(Cl)cc2C12CCC2 [Compound A17, 6′-(4-(azetidin-1-ylmethyl)-1H-pyrazol-1-yl)-5′-chloro-N-methylspiro[cyclobutane-1,3′-indol]-2′-amine] | 0.01 to 0.1
CNc1cc(C)nc(Nc2ccc(OC)c(-n3cc4c(n3)CCNC4)c2F)n1 [Compound A19, N2-(2-fluoro-4-methoxy-3-(4,5,6,7-tetrahydro-2H-pyrazolo[4,3-c]pyridin-2-yl)phenyl)-N4,6-dimethylpyrimidine-2,4-diamine] | 0.1 to 1
CNCc1cn(-c2c(OC)cc3c(c2F)N=C(NC)C32CCC2)nn1 [Compound A21] | 0.01 to 0.1
CNCc1cn(-c2c(OC)cc3c(c2F)N=C(N)C32CCC2)nn1 [Compound A22] | 0.01 to 0.1
